Broadly, the IC50 is the concentration at which inhibition is half-maximal. The low end stands for greater potency, the high end for weaker potency.

The assay concerns the target human GPR17 short isoform (Homo sapiens, UniProt Q13304). Kind of assay: GPR17 cAMP assay (hGPR17 cAMP, antagonist mode, TR-FRET). Format: cell-based. The note with it: CHO-K1 cells stably expressing human GPR17 short isoform; EC80 of agonist MDL29,951; forskolin 15 μM; IBMX 0.5 mM. The method, then: GPR17 cAMP Assay Protocol:
CHO-K1 cells stably expressing vector containing untagged human GPR17 short isoform (Roche) were cultured at 37° C./5% CO2 in DMEM (Dulbecco's Modified Eagle Medium):F-12 (1:1) supplemented with 10% foetal bovine serum and 400 μg/ml Geneticin.
Changes in intracellular cyclic adenosine monophosphate (cAMP) levels were quantified using the Nano-TRF Detection Assay kit (Roche Diagnostics, Cat. No. 05214386001). This assay allows for direct cAMP quantification in a homogeneous solution. cAMP is detected based on time-resolved fluorescence energy transfer (TR-FRET) and competitive binding of ruthenylated cAMP and endogenous cAMP to an anti-cAMP monoclonal antibody labeled with AlexaFluor-700. The Ruthenium complex serves as the FRET donor and transfers energy to AlexaFluor-700. The FRET signal is inversely proportional to the cAMP concentration.
CHO-GPR17S cells were detached with Accutase and resuspended in assay buffer consisting of Hank's Balanced Salt Solution (HBSS), 10 mM HEPES (4-(2-hydroxyethyl) piperazine-1-ethanesulfonic acid solution) and 0.1% bovine serum albumin (pH 7.4). The cells were seeded in black 384-well plates (Corning) at a density of 10,000 cells/20 μl assay buffer until the addition of compounds.
Test antagonist compounds were serially diluted in dimethyl sulfoxide (DMSO) and spotted in 384-well plates. The compounds were then diluted in HBSS buffer supplemented with an EC80 concentration of MDL29,951 (3-(2-Carboxy-4,6-dichloroindol-3-yl)propionic acid) (GPR17 agonist) plus 3-Isobutyl-1-methylxanthine (IBMX) (0.5 mM final concentration) and added to the cells at room temperature. Forskolin (15 μM final concentration) was added 5 minutes after the test compounds and the cells were incubated at room temperature for 30 minutes. The assay was stopped by adding cAMP detection mix (containing detergents for cell lysis) for 90 minutes at room temperature.
Cellular cAMP was measured using a Paradigm reader (Molecular Devices). The raw data was used to calculate the FRET signal based on the assay's P-factor as per cAMP kit instructions. The data was normalized to the maximal activity of a reference antagonist and dose response curves were fitted to the percent activity of the test compounds using a sigmoidal dose response model (Genedata Screener).
Results in the hGPR17 cAMP assay are provided for compounds of formula I in Table 1
Background: Changes in cAMP serve as a functional read-out for many G protein-coupled receptors.

Sequence of human GPR17 short isoform (Q13304 29-367): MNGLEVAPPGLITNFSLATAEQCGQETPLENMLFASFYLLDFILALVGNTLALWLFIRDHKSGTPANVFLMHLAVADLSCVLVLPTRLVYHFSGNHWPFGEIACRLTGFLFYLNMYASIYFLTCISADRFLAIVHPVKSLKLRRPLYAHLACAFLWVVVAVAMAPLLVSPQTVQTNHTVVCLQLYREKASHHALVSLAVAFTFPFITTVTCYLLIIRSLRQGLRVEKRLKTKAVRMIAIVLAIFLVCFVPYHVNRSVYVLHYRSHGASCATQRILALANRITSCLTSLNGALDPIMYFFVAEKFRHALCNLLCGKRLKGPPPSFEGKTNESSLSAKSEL

Regarding `CCOc1snc(NS(=O)(=O)c2c[nH]c3cc(Cl)ccc23)c1Cl` [Example 11, 6-chloro-N-(4-chloro-5-ethoxy-isothiazol-3-yl)-1H-indole-3-sulfonamide], the half-maximal inhibitory concentration (IC50) came out at 54 nM.
For `N#CCCc1snc(NS(=O)(=O)c2c[nH]c3cc(Cl)ccc23)c1Cl` [Example 12, 6-chloro-N-[4-chloro-5-(2-cyanoethyl)isothiazol-3-yl]-1H-indole-3-sulfonamide], the IC50 came out at 74 nM.
For `Cc1onc(NS(=O)(=O)c2c[nH]c3cc(Cl)ccc23)c1C` [Example 19, 6-chloro-N-(4,5-dimethylisoxazol-3-yl)-1H-indole-3-sulfonamide] the value was 550 nM.
For `O=S(=O)(Nc1nsc(C2CC2)c1Cl)c1c[nH]c2cc(Cl)ccc12` [Example 2, 6-chloro-N-(4-chloro-5-cyclopropyl-isothiazol-3-yl)-1H-indole-3-sulfonamide] the value was 51 nM; for `CCCc1snc(NS(=O)(=O)c2c[nH]c3cc(Cl)ccc23)c1Cl` [Example 1, 6-chloro-N-(4-chloro-5-propyl-isothiazol-3-yl)-1H-indole-3-sulfonamide], 19 nM.
For `COc1c(NS(=O)(=O)c2c[nH]c3cc(Cl)ccc23)nsc1C` [Example 16, 6-chloro-N-(4-methoxy-5-methyl-isothiazol-3-yl)-1H-indole-3-sulfonamide] the value was 857 nM; for `O=S(=O)(Nc1nsc(C2CC2)c1Cl)c1c[nH]c2nc(Cl)ccc12` [Example 3, 6-chloro-N-(4-chloro-5-cyclopropyl-isothiazol-3-yl)-1H-pyrrolo[2,3-b]pyridine-3-sulfonamide], 131 nM; for `Cc1cc(NS(=O)(=O)c2c[nH]c3cc(Cl)ccc23)ns1` [Example 13, 6-chloro-N-(5-methylisothiazol-3-yl)-1H-indole-3-sulfonamide], 629 nM.
As for `CCc1c(NS(=O)(=O)c2c[nH]c3cc(Cl)ccc23)nsc1C` [Example 9, 6-chloro-N-(4-ethyl-5-methyl-isothiazol-3-yl)-1H-indole-3-sulfonamide], the 50% inhibitory concentration (IC50) was 659 nM. This IC50 and that of the compound before are within 1.5-fold of each other.
Next, `Cc1onc(NS(=O)(=O)c2c[nH]c3cc(Cl)ccc23)c1Cl` [Example 20, 6-chloro-N-(4-chloro-5-methyl-isoxazol-3-yl)-1H-indole-3-sulfonamide]: 404 nM; `COc1snc(NS(=O)(=O)c2c[nH]c3cc(Cl)ccc23)c1Cl` [Example 10, 6-chloro-N-(4-chloro-5-methoxy-isothiazol-3-yl)-1H-indole-3-sulfonamide]: 113 nM; `CCc1onc(NS(=O)(=O)c2c[nH]c3cc(Cl)ccc23)c1C` [Example 7, 6-chloro-N-(5-ethyl-4-methyl-isoxazol-3-yl)-1H-indole-3-sulfonamide]: 452 nM.
Next, `CCCc1onc(NS(=O)(=O)c2c[nH]c3cc(Cl)ccc23)c1C` [Example 18, 6-chloro-N-(4-methyl-5-propyl-isoxazol-3-yl)-1H-indole-3-sulfonamide]: 815 nM; `Cc1snc(NS(=O)(=O)c2c[nH]c3cc(Cl)ccc23)c1Cl` [Example 5, 6-chloro-N-(4-chloro-5-methyl-isothiazol-3-yl)-1H-indole-3-sulfonamide]: 106 nM; `O=S(=O)(Nc1nsc(C2CC2)c1Cl)c1c[nH]c2nc(Br)ccc12` [Example 4, 6-bromo-N-(4-chloro-5-cyclopropyl-isothiazol-3-yl)-1H-pyrrolo[2,3-b]pyridine-3-sulfonamide]: 103 nM.
Next, `Cc1onc(NS(=O)(=O)c2c[nH]c3cc(Cl)ccc23)c1Br` [Example 21, N-(4-bromo-5-methyl-isoxazol-3-yl)-6-chloro-1H-indole-3-sulfonamide]: 315 nM; `Cc1snc(NS(=O)(=O)c2c[nH]c3cc(Cl)ccc23)c1C#N` [Example 15, 6-chloro-N-(4-cyano-5-methyl-isothiazol-3-yl)-1H-indole-3-sulfonamide]: 499 nM.
Take `CCCc1snc(NS(=O)(=O)c2c[nH]c3cc(Cl)ccc23)c1OC` [Example 17, 6-chloro-N-(4-methoxy-5-propyl-isothiazol-3-yl)-1H-indole-3-sulfonamide]: the half-maximal inhibitory concentration (IC50) came to 78 nM.
For `Cc1snc(NS(=O)(=O)c2c[nH]c3cc(Cl)ccc23)c1C` [Example 6, 6-chloro-N-(4,5-dimethylisothiazol-3-yl)-1H-indole-3-sulfonamide] the value was 216 nM.
The compound `CCc1snc(NS(=O)(=O)c2c[nH]c3cc(Cl)ccc23)c1Cl` [Example 8, 6-chloro-N-(4-chloro-5-ethyl-isothiazol-3-yl)-1H-indole-3-sulfonamide] gave an IC50 of 105 nM.
For `Cc1snc(NS(=O)(=O)c2c[nH]c3cc(Cl)ccc23)c1C1CC1` [Example 14, 6-chloro-N-(4-cyclopropyl-5-methyl-isothiazol-3-yl)-1H-indole-3-sulfonamide] the value was 1110 nM.

The values are drawn from US20260028335A1, “NOVEL ISOTHIAZOL-3-YL AND ISOXAZOL-3-YL SULFONAMIDE COMPOUNDS” (Hoffmann-La Roche Inc., priority 2022, published 2026).
